Measurements as given in patent US9018208B2, “Heterocycles as potassium channel modulators” (Icagen Inc., priority 2007, dated 2015).

Tested on: SH-SY5Y M-currents (KCNQ2, KCNQ3 and KCNQ5)
Test: SH-SY5Y native cell line FLIPR assay (voltage-sensitive dye DiBAC)
Assay type: cell-based, mouse neuroblastoma, rat glioma hybrid cell line
Settings: FLIPR assay, SH-SY5Y native cell line; Table 2; read-out: SH-SY5Y EC50
How it was run: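 Response is peak DiBAC fluorescence change, normalised to the maximum from a positive control agent, sampled every 30 s over 25 min. Before compound addition, SH-SY5Y cells differentiated with PGE1 plus isomethylbutylxanthine were dye-loaded for 1 h in EBSS with […] DiBAC.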

| Compound | EC50 |
| --- | --- |
| O=C(CC1CCOCC1)Nc1nc2ccc(F)cn2c1-c1ccc(OC(F)(F)F)cc1 [Compound 251, N-(6-fluoro-3-(4-(trifluoromethoxy)phenyl)imidazo[1,2-a]pyridin-2-yl)-2-(tetrahydro-2H-pyran-4-yl)acetamide] | 500 to 3000 nM |
| O=C(CC(F)(F)F)Nc1nc2ccc(F)cn2c1-c1ccc(OC(F)(F)F)cc1 [Compound 252, 3,3,3-trifluoro-N-(6-fluoro-3-(4-(trifluoromethoxy)phenyl)imidazo[1,2-a]pyridin-2-yl)propanamide] | < 500 nM |
| CO[C@@H](C(=O)Nc1nc2ccc(F)cn2c1-c1ccc(OC(F)(F)F)cc1)c1ccccc1 [Compound 253, (R)—N-(6-fluoro-3-(4-(trifluoromethoxy)phenyl)imidazo[1,2-a]pyridin-2-yl)-2-methoxy-2-phenyl acetamide] | 3000 to 10000 nM |
| CO[C@H](C(=O)Nc1nc2ccc(F)cn2c1-c1ccc(OC(F)(F)F)cc1)c1ccccc1 [Compound 254, (S)—N-(6-fluoro-3-(4-(trifluoromethoxy)phenyl)imidazo[1,2-a]pyridin-2-yl)-2-methoxy-2-phenyl acetamide] | 3000 to 10000 nM |
| Cc1cc(-c2c(NC(=O)CC(C)(C)C)nc3ccc(F)cn23)ccc1F [Compound 255, N-(6-fluoro-3-(4-fluoro-3-methylphenyl)imidazo[1,2-a]pyridin-2-yl)-3,3-dimethylbutanamide] | < 500 nM |
| Cc1c(F)ccc(-c2c(NC(=O)CC(C)(C)C)nc3ccc(F)cn23)c1F [Compound 256, N-(3-(2,4-difluoro-3-methylphenyl)-6-fluoroimidazo[1,2-a]pyridin-2-yl)-3,3-dimethylbutanamide] | 500 to 3000 nM |
| Cc1cc(-c2c(NC(=O)CC(C)(C)C)nc3ccc(F)cn23)ccc1Cl [Compound 257, N-(3-(4-chloro-3-methylphenyl)-6-fluoroimidazo[1,2-a]pyridin-2-yl)-3,3-dimethylbutanamide] | < 500 nM |
| Cc1ccc(-c2c(NC(=O)CC(C)(C)C)nc3ccc(F)cn23)cc1Cl [Compound 258, N-(3-(3-chloro-4-methylphenyl)-6-fluoroimidazo[1,2-a]pyridin-2-yl)-3,3-dimethylbutanamide] | < 500 nM |
| CC(C)(C)CC(=O)Nc1nc2ccc(C#N)cn2c1-c1ccc(C(F)(F)F)cc1 [Compound 259, N-(6-cyano-3-(4-(trifluoromethyl)phenyl)imidazo[1,2-a]pyridin-2-yl)-3,3-dimethylbutanamide] | < 500 nM |
| N#Cc1ccc2nc(NC(=O)Cc3ccc(F)cc3)c(-c3ccc(C(F)(F)F)cc3)n2c1 [Compound 260, N-(6-cyano-3-(4-(trifluoromethyl)phenyl)imidazo[1,2-a]pyridin-2-yl)-2-(4-fluorophenyl)acetamide] | < 500 nM |
| CC(C)(C)CC(=O)Nc1nc2c(F)cc(F)cn2c1-c1ccc(OC(F)(F)F)cc1 [Compound 262, N-(6,8-difluoro-3-(4-(trifluoromethoxy)phenyl)imidazo[1,2-a]pyridin-2-yl)-3,3-dimethylbutanamide] | < 500 nM |
| O=C(CC(F)(F)F)Nc1nc2ccc(F)cn2c1-c1cccc(OC(F)(F)F)c1 [Compound 263, 3,3,3-trifluoro-N-(6-fluoro-3-(3-(trifluoromethoxy)phenyl)imidazo[1,2-a]pyridin-2-yl)propanamide] | 500 to 3000 nM |
| O=C(CC1CCCC1)Nc1nc2ccc(F)cn2c1-c1cccc(OC(F)(F)F)c1 [Compound 264, 2-cyclopentyl-N-(6-fluoro-3-(3-(trifluoromethoxy)phenyl)imidazo[1,2-a]pyridin-2-yl)acetamide] | < 500 nM |
| O=C(CC1CC1)Nc1nc2ccc(F)cn2c1-c1cccc(OC(F)(F)F)c1 [Compound 265, 2-cyclopropyl-N-(6-fluoro-3-(3-(trifluoromethoxy)phenyl)imidazo[1,2-a]pyridin-2-yl)acetamide] | 500 to 3000 nM |
| O=C(CC1CCC1)Nc1nc2ccc(F)cn2c1-c1cccc(OC(F)(F)F)c1 [Compound 266, 2-cyclobutyl-N-(6-fluoro-3-(3-(trifluoromethoxy)phenyl)imidazo[1,2-a]pyridin-2-yl)acetamide] | < 500 nM |
